Measurements: patent US20250387399A1, “TREATMENT OF A SELECTIVE POPULATION OF PATIENTS HAVING DEMENTIA WITH LEWY BODIES” (EIP Pharma, LLC, priority 2021, published 2025)

How the values were obtained:
Assay type in all cases: in vivo, human
[1] = tested on: patients with mild-to-moderate DLB; assay: AscenD-LB phase 2 study: DLB specific Neuropsychological Test Battery (NTB) z-score
Protocol: (§1) With the objective of uniformly achieving a target average plasma drug concentration of 20 nM patients, dosing regimen after randomization to neflamapimod or placebo was based on weight: • Weight<80 kg: 40 mg neflamapimod capsule or matching placebo capsule BID • Weight≥80 kg: 40 mg neflamapimod capsule or matching placebo capsule TID
(§2) As a result, efficacy analyses compared: (1) all neflamapimod (i.e., including 40 mg BID and 40 mg TID) vs. placebo; (2) 40 mg TID (dose group that achieved target concentration) vs. placebo; and (3) 40 mg TID vs. placebo TID.
(§3) Plasma ptau181 levels were determined by SIMOA pTau181 Assay (Quanterix) at the VU Medical Center, where the in-house defined cut-off for tau pathology was set at 2.2 pg/mL.

[2] = tested on: patients with mild-to-moderate DLB; assay: AscenD-LB phase 2 study: Attention Composite z-score
Protocol: as §1, §2, §3

[3] = AscenD-LB phase 2 study: plasma drug concentration
Protocol: as §1
Trough plasma drug concentrations 50% lower with 40 mg BID vs. 40 mg TID

[4] = tested on: patients with mild-to-moderate DLB; assay: AscenD-LB phase 2 study: Timed Up and Go (TUG) test
Protocol: as §1, §2, §3

[5] = tested on: patients with mild-to-moderate DLB; assay: AscenD-LB phase 2 study: treatment effect by baseline plasma ptau181 status (all major endpoints)
Protocol: Up to half of patients with DLB have tau pathology, or “AD copathology” (van der Lee et al, 2021) and such co-pathology may impact response to cholinesterase inhibitors (Graff-Radford et al, 2012). In patients with DLB, plasma phospho-tau (either ptau217 or ptau181) correlates with tau-PET signal in the temporal cortex and predicts abnormal tau-PET status and CSF β-amyloid status (Hall et al, 2021). Accordingly, plasma ptau181 levels were assessed in plasma samples obtained during the screening phase of AscenD-LB. The results on the association of tau pathology to treatment outcome in AscenD-LB are described below.
as §3

[6] = tested on: patients with mild-to-moderate DLB; assay: AscenD-LB phase 2 study: Clinical Dementia Rating Scale sum-of-boxes (CDR-SB)
Protocol: as §1, §2, §3

[7] = tested on: patients with mild-to-moderate DLB; assay: AscenD-LB phase 2 study: International Shopping List Test (ISLT); settings: patients with baseline plasma ptau181 <2.2 pg/mL, 16 weeks
Protocol: as §1, §2, §3

[8] = 40 mg TID vs. placebo TID, baseline plasma ptau181 < 2.2 pg/mL
[9] = 40 mg TID vs. placebo, baseline plasma ptau181 < 2.2 pg/mL
[10] = all neflamapimod (40 mg BID and TID) vs. placebo, baseline plasma ptau181 < 2.2 pg/mL
[11] = overall population, 91-patient, 16-week study, main analysis
[12] = 40 mg TID vs. all placebo, patients with baseline plasma ptau181 <2.2 pg/mL, 16 weeks
[13] = 40 mg TID vs. placebo TID, patients with baseline plasma ptau181 <2.2 pg/mL, 16 weeks

Compound: O=c1ncn2nc(Sc3ccc(F)cc3F)ccc2c1-c1c(Cl)cccc1Cl [neflamapimod, 5-(2,6-dichlorophenyl)-2-(2,4-difluorophenylthio)-6H-pyrimido [1,6-b]pyridazin-6-one]
- NTB z-score, difference vs. placebo (LMMRM) ([1]; 40 mg TID vs. all placebo, patients with baseline plasma ptau181 <2.2 pg/mL, 16 weeks, not significant): 0.21
- NTB, Effect size, improvement in neflamapimod 40 mg TID vs. placebo TID [1, 8]: 0.61
- NTB z-score, difference vs. placebo TID (LMMRM) ([1]; 40 mg TID vs. placebo TID, patients with baseline plasma ptau181 <2.2 pg/mL, 16 weeks, not significant): 0.25
- NTB, Effect size, improvement in neflamapimod 40 mg TID vs. placebo [1, 9]: 0.56
- NTB, Effect size, improvement in all neflamapimod vs. placebo [1, 10]: 0.15
- cognition assessed by NTB, relative to placebo [1, 11]: significant improvement
- attention composite z-score, difference vs. placebo (LMMRM) [2, 12]: 0.42 z-score
- Attention, Effect size, improvement in neflamapimod 40 mg TID vs. placebo TID [2, 8]: 0.70
- attention composite z-score, difference vs. placebo TID (LMMRM) [2, 13]: 0.46 z-score
- Attention, Effect size, improvement in neflamapimod 40 mg TID vs. placebo [2, 9]: 0.78
- Attention, Effect size, improvement in all neflamapimod vs. placebo [2, 10]: 0.29
- shortfall from target average plasma drug concentration (20 nM) ([3]; 40 mg BID (weight <80 kg)): 30-40%
- trough plasma drug concentrations, lower with 40 mg BID vs. 40 mg TID ([3]; 40 mg BID vs. 40 mg TID): 50%
- attainment of target average plasma drug concentration (20 nM) ([3]; 40 mg TID (weight ≥80 kg)): achieved target plasma drug concentration
- TUG, difference vs. placebo (LMMRM) [4, 12]: -3.1 s
- Timed up and Go, Effect size, improvement in neflamapimod 40 mg TID vs. placebo TID [4, 8]: 0.70
- TUG, difference vs. placebo TID (LMMRM) [4, 13]: -3.5 s
- Timed up and Go, Effect size, improvement in neflamapimod 40 mg TID vs. placebo [4, 9]: 0.74
- Timed up and Go, Effect size, improvement in all neflamapimod vs. placebo [4, 10]: 0.40
- motor function assessed by TUG test, relative to placebo [4, 11]: significant improvement
- treatment effect on NTB z-score, attention z-score, TUG, CDR-SB (descriptive evaluation) ([5]; patients below the threshold (2.2 pg/mL) for having tau pathology): positive treatment effects
- treatment effect on NTB z-score, attention z-score, TUG, CDR-SB (descriptive evaluation) ([5]; patients with baseline plasma ptau181 above the threshold (2.2 pg/mL), i.e. with tau pathology): no discernible treatment effect
- magnitude of treatment effect relative to placebo for the individual endpoints, ptau181 <2.2 pg/mL population compared to overall population ([5]; plasma ptau181 <2.2 pg/mL at baseline vs. overall population): 1.5 to 2.0 fold
- CDR-SB, difference vs. placebo (LMMRM) [6, 12]: −0.60 points
- CDR-SB, Effect size, improvement in neflamapimod 40 mg TID vs. placebo TID [6, 8]: 0.98
- CDR-SB, difference vs. placebo TID (LMMRM) [6, 13]: −0.93 points
- CDR-SB, Effect size, improvement in neflamapimod 40 mg TID vs. placebo [6, 9]: 0.70
- CDR-SB, Effect size, improvement in all neflamapimod vs. placebo [6, 10]: 0.58
- cognition and function assessed by CDR-SB, relative to placebo [6, 11]: significant improvement
- ISLD immediate recall, difference vs. placebo (LMMRM) ([7]; 40 mg TID vs. all placebo): 2.1 words
- ISLD recognition, difference vs. placebo (LMMRM) ([7]; 40 mg TID vs. all placebo): 1.4 words
- ISLD immediate recall, difference vs. placebo TID (LMMRM) ([7]; 40 mg TID vs. placebo TID): 2.3 words
- ISLD recognition, difference vs. placebo TID (LMMRM) ([7]; 40 mg TID vs. placebo TID): 0.9 words
